Measured values from paper PMC5306062, “Pharmacology and toxicology of the novel investigational agent Cantrixil (TRX-E-002-1)” (Cancer Chemotherapy and Pharmacology, 2016).
Like-named read-outs stand apart in the source and are kept apart here.

Experiments:
A172 = assay: Cytotoxic activity in human cancer cell lines (72 h growth inhibition); format: cell-based; details: A 172, Glioblastoma, 72 h incubation, mean ± SEM
Excerpt: (§1) Activity in pancreatic and colorectal cancer cells and glioblastoma cells was more variable (Table 1).

A549 = assay: as above; format: cell-based; details: Lung, 72 h incubation
Excerpt: as §1

ASPC1 = assay: as above; format: cell-based; details: Pancreatic, 72 h incubation, mean ± SEM
Excerpt: as §1

C4-2B = assay: as above; format: cell-based; details: Prostate, 72 h incubation, mean ± SEM
Excerpt: as §1

DU145 = assay: as above; format: cell-based; details: DU-145, Prostate, 72 h incubation, mean ± SEM
Excerpt: as §1

HT-29 = assay: as above; format: cell-based; details: Colorectal, 72 h incubation, mean ± SEM
Excerpt: as §1

JAM = assay: as above; format: cell-based; details: Ovarian, 72 h incubation, mean ± SEM
Excerpt: as §1

LOVO = assay: as above; format: cell-based; details: Colorectal, 72 h incubation, mean ± SEM
Excerpt: as §1

OVCAR-3 = assay: as above; format: cell-based; details: Ovarian, 72 h incubation, mean ± SEM
Excerpt: as §1

PC3 = assay: as above; format: cell-based; details: PC-3, Prostate, 72 h incubation, mean ± SEM
Excerpt: as §1

Panc-1 = assay: as above; format: cell-based; details: Pancreatic, 72 h incubation, mean ± SEM
Excerpt: as §1

[1] = tested on: chemo-sensitive CD44−/MyD88− ovarian cancer cell lines; assay: Cell death in chemo-sensitive ovarian cancer cell lines; format: cell-based, human; details: grown separately or in co-cultures
Excerpt: (§2) Tumour recurrence post-chemotherapy is caused by the regrowth of the surviving innately drug-resistant cancer stem cells that remain in tumour niches during and post-chemotherapy. The expansion of this chemo-resistant cancer cell population, coupled with upregulation of pro-survival pathways due to drug pressure, is thought to be responsible for the development of chemo-resistant recurrent disease. Further, the inherent heterogeneity of ovarian tumours consists of epithelial cells with varying potential for stemness, and a population of cancer cells with varying mesenchymal status and invasiveness potential. Therefore, to improve survival, a practical approach is the use of novel therapies that can induce cell death in these various subtypes of ovarian cancer cells. TRX-E-002-1 was assessed against ovarian cancer stem cell line OCSC2, characterised by their expression of stem cell markers including CD44 and […] [22]. A major characteristic of these cells is that they are drug resistant, able to form self-renewing spheroids in non-adherent culture, and recreate disseminated drug-resistant ovarian tumours that have a high degree of heterogeneity similar to the clinical profile observed in patients when inoculated into the peritoneal cavity of an immune-compromised mouse.

[2] = tested on: co-cultures which mimic tumour heterogeneity; assay: Co-culture studies with cisplatin; format: cell-based, human
Excerpt: as §2

hERG current = biological target: T1, hERG current (Homo sapiens, UniProt Q12809); assay: Patch-clamp electrophysiological assay in hERG-transfected mammalian cells; format: cell-based; details: read-out: IC50 for inhibition of hERG current
T1 construct: expressed in transfected cells

CYP1A2 = biological target: T2, CYP1A2 (Homo sapiens, UniProt P05177); assay: Metabolism-dependent CYP inhibition in human hepatic microsomes; format: in vitro ADME
T2 construct: investigated in human hepatic microsomes in vitro; from tissue; host or cells: human hepatic microsomes
Excerpt: (§3) The potential for pharmacokinetic drug interactions resulting from inhibition of drug-metabolizing cytochrome P450 enzymes was investigated in human hepatic microsomes in vitro. TRX-E-002-1 inhibited multiple cytochrome P450 drug-metabolizing enzymes, including CYP2C9, CYP2C8, CYP2C19, CYP2B6, CYP3A4, CYP2D6, CYP2A6 and CYP1A2. […] In particular, the potential interaction between Cantrixil and paclitaxel, a CYP2C9 substrate frequently used in the treatment of ovarian cancer, needs to be considered.

CYP2C8 = biological target: T3, CYP2C8 (Homo sapiens, UniProt P10632); assay: as above; format: in vitro ADME
T3 construct: investigated in human hepatic microsomes in vitro; from tissue; host or cells: human hepatic microsomes
Excerpt: as §3

CYP3A4 [3] = biological target: T4, CYP3A4 (Homo sapiens, UniProt P08684); assay: as above; format: in vitro ADME
T4 construct: investigated in human hepatic microsomes in vitro; from tissue; host or cells: human hepatic microsomes
Excerpt: as §3

CYP2B6 = assay: CYP induction in human hepatocytes; format: in vitro ADME; details: one of three donors
Excerpt: (§4) Potential induction of human drug-metabolizing cytochrome P450 enzymes by TRX-E-002-1 was also investigated in human hepatocytes in vitro (VPT3079/2015). No evidence of CYP1A2 induction was observed.

CYP3A4 [4] = assay: CYP induction in human hepatocytes; format: in vitro ADME; details: one of three donors
Excerpt: as §4

[5] = Rat 14-day pilot repeat-dose intraperitoneal toxicity study; format: in vivo; details: for deaths: 50 mg/kg/day; for AUC(0-t) / Cmax: plasma, Day 14, 5 mg/kg/day; for Cmax: read-out: plasma C max
Experimental: Clinical signs at all dose levels were reduced and/or liquid faeces, and staining of the fur of the forelimbs or around the eyes, nose and snout. […] Macroscopic pathology findings were limited to the 50 mg/kg/day group and included small testes, small thymus and small spleen.

[6] = tested on: Escherichia coli strain WP2uvrA; assay: Bacterial reverse mutation test, plate assay; format: cell-based; details: absence or presence of S9 mix
Experimental: (§5) The assays were performed in compliance with GLP regulations.
(§6) The bacterial reverse mutation test employed Salmonella typhimurium strains TA1535, TA1537, TA98 and TA100, and Escherichia coli strain WP2uvrA in a conventional plate assay, with and without exogenous metabolic activation by a rat liver post-mitochondrial fraction (S9 mix).

[7] = tested on: Salmonella typhimurium strains TA1535, TA1537, TA98 and TA100; assay: Bacterial reverse mutation test, plate assay; format: cell-based; details: absence or presence of S9 mix
Experimental: as §5, §6

[8] = female, Sprague-Dawley, rat, ip, females
[9] = male, Sprague-Dawley, rat, ip, males

T1 sequence (Q12809 whole entry): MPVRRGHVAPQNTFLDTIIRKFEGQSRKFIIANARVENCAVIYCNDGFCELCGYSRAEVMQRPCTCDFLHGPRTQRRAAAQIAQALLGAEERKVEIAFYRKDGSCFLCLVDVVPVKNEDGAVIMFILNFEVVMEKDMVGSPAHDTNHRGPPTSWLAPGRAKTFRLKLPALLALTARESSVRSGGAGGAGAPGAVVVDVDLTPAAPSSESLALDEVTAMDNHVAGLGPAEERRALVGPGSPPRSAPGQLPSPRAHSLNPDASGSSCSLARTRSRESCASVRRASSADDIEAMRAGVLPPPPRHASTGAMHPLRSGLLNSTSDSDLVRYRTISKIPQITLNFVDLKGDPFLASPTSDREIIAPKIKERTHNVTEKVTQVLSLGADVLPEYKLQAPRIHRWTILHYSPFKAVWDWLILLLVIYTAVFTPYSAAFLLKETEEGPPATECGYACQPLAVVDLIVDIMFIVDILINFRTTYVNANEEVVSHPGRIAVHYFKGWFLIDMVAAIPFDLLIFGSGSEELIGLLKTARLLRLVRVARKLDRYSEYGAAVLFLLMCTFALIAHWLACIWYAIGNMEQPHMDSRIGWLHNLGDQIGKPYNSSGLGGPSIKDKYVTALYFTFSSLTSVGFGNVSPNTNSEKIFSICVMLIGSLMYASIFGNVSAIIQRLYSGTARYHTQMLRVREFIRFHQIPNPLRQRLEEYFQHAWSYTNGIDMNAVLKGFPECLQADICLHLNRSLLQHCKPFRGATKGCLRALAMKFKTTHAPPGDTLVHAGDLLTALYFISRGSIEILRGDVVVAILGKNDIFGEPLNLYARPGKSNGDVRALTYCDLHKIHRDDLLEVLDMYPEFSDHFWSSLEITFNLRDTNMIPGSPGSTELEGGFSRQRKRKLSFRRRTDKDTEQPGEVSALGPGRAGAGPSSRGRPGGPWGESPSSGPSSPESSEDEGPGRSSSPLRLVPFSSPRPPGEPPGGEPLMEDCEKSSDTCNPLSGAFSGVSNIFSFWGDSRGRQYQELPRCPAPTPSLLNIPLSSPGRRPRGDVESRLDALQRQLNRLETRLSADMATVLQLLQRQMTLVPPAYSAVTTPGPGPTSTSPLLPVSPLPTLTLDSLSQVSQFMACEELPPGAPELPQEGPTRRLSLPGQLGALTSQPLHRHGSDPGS
T4 sequence (P08684 whole entry): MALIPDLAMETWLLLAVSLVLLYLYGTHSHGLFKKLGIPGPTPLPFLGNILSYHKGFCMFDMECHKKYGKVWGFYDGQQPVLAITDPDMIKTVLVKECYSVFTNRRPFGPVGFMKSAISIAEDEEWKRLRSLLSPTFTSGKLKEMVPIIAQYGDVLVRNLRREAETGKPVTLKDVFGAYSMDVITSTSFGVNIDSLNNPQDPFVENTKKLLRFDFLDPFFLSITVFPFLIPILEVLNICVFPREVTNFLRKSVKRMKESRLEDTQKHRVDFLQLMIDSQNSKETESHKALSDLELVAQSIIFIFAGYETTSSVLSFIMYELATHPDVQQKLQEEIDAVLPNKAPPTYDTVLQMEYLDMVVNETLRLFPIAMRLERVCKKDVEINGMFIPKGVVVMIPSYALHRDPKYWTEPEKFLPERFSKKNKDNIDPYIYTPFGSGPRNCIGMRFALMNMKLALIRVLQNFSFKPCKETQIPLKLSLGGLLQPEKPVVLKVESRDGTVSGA
T3 sequence (P10632 whole entry): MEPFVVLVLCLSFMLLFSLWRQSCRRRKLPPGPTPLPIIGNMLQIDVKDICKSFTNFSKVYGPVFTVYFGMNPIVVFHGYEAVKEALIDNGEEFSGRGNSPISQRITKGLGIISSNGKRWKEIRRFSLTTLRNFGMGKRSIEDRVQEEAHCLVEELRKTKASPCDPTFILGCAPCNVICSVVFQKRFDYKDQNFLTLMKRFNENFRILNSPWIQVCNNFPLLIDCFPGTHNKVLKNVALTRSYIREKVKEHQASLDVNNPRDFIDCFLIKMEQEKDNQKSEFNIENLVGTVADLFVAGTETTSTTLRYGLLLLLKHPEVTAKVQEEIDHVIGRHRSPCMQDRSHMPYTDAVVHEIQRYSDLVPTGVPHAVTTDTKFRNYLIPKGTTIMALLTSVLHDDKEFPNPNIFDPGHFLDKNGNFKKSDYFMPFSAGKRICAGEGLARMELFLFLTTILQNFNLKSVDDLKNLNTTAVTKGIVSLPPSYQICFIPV
T2 sequence (P05177 whole entry): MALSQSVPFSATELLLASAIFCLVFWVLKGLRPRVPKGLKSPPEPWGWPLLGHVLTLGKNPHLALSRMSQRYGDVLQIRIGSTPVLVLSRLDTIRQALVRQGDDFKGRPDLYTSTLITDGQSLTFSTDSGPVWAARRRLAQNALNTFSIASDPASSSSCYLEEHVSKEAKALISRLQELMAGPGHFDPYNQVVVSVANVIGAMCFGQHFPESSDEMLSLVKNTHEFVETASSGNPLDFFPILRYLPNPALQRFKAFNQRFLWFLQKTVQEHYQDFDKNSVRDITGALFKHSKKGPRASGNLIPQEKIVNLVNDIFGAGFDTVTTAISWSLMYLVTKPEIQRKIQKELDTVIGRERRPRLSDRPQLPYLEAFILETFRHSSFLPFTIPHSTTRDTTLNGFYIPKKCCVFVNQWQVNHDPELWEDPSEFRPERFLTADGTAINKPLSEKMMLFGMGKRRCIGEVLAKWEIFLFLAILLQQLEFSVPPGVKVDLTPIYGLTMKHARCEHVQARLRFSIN

Compound: COc1cc([C@@H]2COc3c(ccc(O)c3C)[C@@H]2c2ccc(O)cc2)cc(OC)c1O [TRX-E-002-1, (+) cis-4-(para-hydroxyphenyl)-7,4′-dihydroxy-3′,5′-dimethoxy-8-methylisoflavan]
- IC50 (A172): 51 ± 2 nM
- IC50 (A549): 58 nM
- IC50 (ASPC1): 227 ± 55 nM
- IC50 (C4-2B): 14 ± 9 nM
- IC50 (DU145): 41 ± 14 nM
- IC50 (HT-29): 1760 ± 1380 nM
- IC50 (JAM): 65 ± 2 nM
- IC50 (LOVO): 45 ± 5 nM
- IC50 (LOVO; Homo sapiens, LoVo, 72 h): 84 nM
- IC50 (OVCAR-3): 23 ± 6 nM
- IC50 (PC3): 96 ± 77 nM
- IC50 (Panc-1): 467 ± 378 nM
- induction of cell death [1]: able to induce cell death
- effect on effectiveness of cisplatin [2]: enhanced the effectiveness of cisplatin
- IC50 (hERG current): 17000 nM
- metabolism-dependent inhibition (CYP1A2): observed
- metabolism-dependent inhibition (CYP2C8): observed
- metabolism-dependent inhibition (CYP3A4 [3]): observed
- induction of CYP2B6 (CYP2B6): Equivocal evidence
- induction of CYP3A4 (CYP3A4 [4]): Equivocal evidence
- deaths ([5]; females): 8/11
- deaths ([5]; males): 9/11
- NOAEL at 14 days ([5]; both sexes, Sprague-Dawley, rat, in vivo, ip): 5 mg/kg/day
- AUC(0-t) [5, 8]: 665 ng·h/mL
- Cmax [5, 8]: 257 ng/mL
- doses with reduced body weight gain ([5]; females): ≥ 15 mg/kg/day
- AUC(0-t) [5, 9]: 1870 ng·h/mL
- Cmax [5, 9]: 909 ng/mL
- doses with reduced body weight gain ([5]; males): ≥ 5 mg/kg/day
- number of revertant colonies [6]: no significant increases
- number of revertant colonies [7]: no significant increases
